Measurements published in US11413240B2 (Board of Regents, The University of Texas System, priority 2016, dated 2022).

How the values were obtained:
[1] = in vivo; cited from earlier work
[2] = 10 g/L, 25° C. (77° F.); cited from earlier work
[3] = test system: patients with oral mucositis pain/lesions; assay: Additional patients assessed after methylene blue oral rinse at 0.025%, 0.05% and 0.1% (Table 2)

In the case of `CN(C)c1ccc2nc3ccc(=[N+](C)C)cc-3sc2c1` [methylene blue], the blood-brain barrier passage [1] is listed as “crosses the blood-brain barrier”, the pH in water [2] is listed as 3 and the analgesia ([3]; 0.05-0.1% methylene blue as a mouth rinse, almost all patients) is listed as “sustained analgesia over a few days to several months”. For the same compound, the “onset (of MB effect)” value ([3]; MB 0.025% oral rinse) was 2 D, the “onset (of MB effect)” value ([3]; MB 0.05% oral rinse) was 1 W and the tolerability ([3]; mouth rinse, case series) was “tolerated well”.
